The text below walks through data of ChEMBL document CHEMBL4420076, “Amylin and calcitonin receptor agonist” (2017).

Numbered stars: 1 amine (or outer) side, 2 acyl side, 3 side chain; on linkers, the order of the positions; unused ones are H or OH. Peptide text beside a SMILES is read from it. * marks the point of attachment. C20 diacid = O=C(O)CCCCCCCCCCCCCCCCCCC(=O)*; C18 diacid = O=C(O)CCCCCCCCCCCCCCCCC(=O)*; γGlu = O=C(O)[C@H](CCC(=O)[*:2])N[*:1] A value given as a limit tells only on which side of the number the result lay.

The solubility is the dissolved amount per volume that the medium holds. Read a high solubility as much dissolved substance. A word on the IC50: it is the concentration that inhibits the measured activity by half. As usually defined, the EC50 is the concentration giving half of the maximal effect.

Series [1] in a line: Solubility in 100 mM glycylglycine buffer at pH 3.0 incubated for 18 hrs by UPLC analysis. It counts as physicochemical.
Series [2] concerns the target T1, Amylin receptor AMY3; CALCR/RAMP3 (Homo sapiens, UniProt O60896+P30988).
T1 sequence (P30988 whole entry): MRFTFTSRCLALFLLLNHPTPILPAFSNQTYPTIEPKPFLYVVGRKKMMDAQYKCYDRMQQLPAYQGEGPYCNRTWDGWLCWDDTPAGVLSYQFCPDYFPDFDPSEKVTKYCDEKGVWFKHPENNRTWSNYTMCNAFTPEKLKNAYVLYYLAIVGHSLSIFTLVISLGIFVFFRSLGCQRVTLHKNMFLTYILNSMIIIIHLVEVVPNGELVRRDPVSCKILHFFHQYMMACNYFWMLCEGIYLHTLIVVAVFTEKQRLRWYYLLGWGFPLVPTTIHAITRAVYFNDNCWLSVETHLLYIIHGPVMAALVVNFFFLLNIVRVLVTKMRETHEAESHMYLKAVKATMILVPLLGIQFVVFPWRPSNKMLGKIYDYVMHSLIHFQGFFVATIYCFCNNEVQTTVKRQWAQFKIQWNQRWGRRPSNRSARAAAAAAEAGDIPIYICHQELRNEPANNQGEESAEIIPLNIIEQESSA
T1 sequence (O60896 whole entry): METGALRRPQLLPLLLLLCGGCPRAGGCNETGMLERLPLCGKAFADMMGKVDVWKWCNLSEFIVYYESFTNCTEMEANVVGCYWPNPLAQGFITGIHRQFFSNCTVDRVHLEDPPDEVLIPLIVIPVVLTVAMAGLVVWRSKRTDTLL
Nature of the series: Displacement of [125I]-labeled rat amylin from human amylin receptor expressed in BHK tkts13 whole cells co-expressing RAMP3 incubated for 60 mins by scintillation proximity assay. It counts as cell-based.

Series [3] can be described thus: Solubility in 100 mM glycylglycine buffer at pH 4.0 incubated for 18 hrs by UPLC analysis. Type of series: physicochemical.
Series [4] concerns the target T2, Calcitonin receptor (Homo sapiens, UniProt P30988).
T2 sequence (P30988 whole entry): T1 sequence (P30988 whole entry)
Nature of the series: Agonist activity at human calcitonin receptor expressed in BHK570 cells assessed as increase in intracellular cAMP concentration incubated for 3 hrs in presence of 10% FBS by CRE luciferase reporter gene assay. It counts as functional, cell-based. In general terms: A reporter such as luciferase makes a cellular process visible.

A short description of series [5]: Solubility in 100 mM glycylglycine buffer at pH 5.0 incubated for 18 hrs by UPLC analysis. Type of series: physicochemical.
Series [6] in a line: Solubility in 100 mM bistrispropane buffer at pH 6.5 incubated for 18 hrs by UPLC analysis. Type of series: physicochemical.
A short description of series [7]: Solubility in 100 mM bistrispropane buffer at pH 7.0 incubated for 18 hrs by UPLC analysis. Type of series: physicochemical.
The target in series [8] is T2, Calcitonin receptor. In words: Agonist activity at human calcitonin receptor expressed in BHK570 cells assessed as increase in intracellular cAMP concentration incubated for 3 hrs in absence of albumin by CRE luciferase reporter gene assay. It counts as functional, cell-based.
Series [9] is described as follows: Solubility in 100 mM bistrispropane buffer at pH 6.0 incubated for 18 hrs by UPLC analysis. It counts as physicochemical.
Series [10] is described as follows: Solubility in 100 mM bistrispropane buffer at pH 8.0 incubated for 18 hrs by UPLC analysis. Type of series: physicochemical.
Series [11] in a line: Solubility in 100 mM bistrispropane buffer at pH 7.5 incubated for 18 hrs by UPLC analysis. It counts as physicochemical.
The target in series [12] is T1, Amylin receptor AMY3; CALCR/RAMP3. Nature of the series: Agonist activity at human amylin receptor expressed in BHK570 cells co-expressing RAMP3 assessed as increase in intracellular cAMP concentration incubated for 3 hrs in absence of albumin by CRE luciferase reporter gene assay. It counts as functional, cell-based.
Series [13] shares this target. In words: Agonist activity at human amylin receptor expressed in BHK570 cells co-expressing RAMP3 assessed as increase in intracellular cAMP concentration incubated for 3 hrs in presence of 10% FBS by CRE luciferase reporter gene assay. Type of series: functional, cell-based.

As for `CC(C)C[C@H](NC(=O)[C@H](CCCNC(=N)N)NC(=O)CNC(=O)[C@H](CC(C)C)NC(=O)[C@@H](NC(=O)[C@H](C)NC(=O)[C@@H](NC(=O)[C@@H](NC(=O)[C@H](CC(C)C)NC(=O)[C@H](CCC(=O)O)NC(=O)[C@H](CO)NC(=O)[C@H](C)NC(=O)CC[C@H](NC(=O)CCCCCCCCCCCCCCCCC(=O)O)C(=O)O)[C@@H](C)O)[C@@H](C)O)C(C)C)C(=O)N[C@@H](CCC(=O)O)C(=O)N[C@@H](C)C(=O)N[C@@H](CCC(=O)O)C(=O)N[C@@H](CC(C)C)C(=O)N[C@@H](Cc1cnc[nH]1)C(=O)N[C@@H](CCC(=O)O)C(=O)N[C@@H](CC(C)C)C(=O)N[C@H](C(=O)N[C@H](C(=O)N[C@@H](CC(C)C)C(=O)N1CCC[C@H]1C(=O)N[C@@H](CCCNC(=N)N)C(=O)N[C@H](C(=O)N[C@@H](CCC(=O)O)C(=O)N[C@H](C(=O)NCC(=O)N[C@H](C(=O)NCC(=O)N[C@H](C(=O)N1CCC[C@H]1C(N)=O)[C@@H](C)O)[C@@H](C)O)[C@@H](C)O)[C@@H](C)O)[C@@H](C)O)[C@@H](C)O` ({C18 diacid-γGlu}-ASELTTAVLGRLEAELHELTTLPRTETGTGTP-NH2), the solubility at 18 h in [1], in series [3], in series [5], in series [6], in [7] and in [9] was no less than 200 µM throughout. The solubility at 18 h in [10] and in series [11] was no less than 200 µM in each case. For the same molecule, in series [2], the IC50 was 19.7 nM. Further, the EC50 at Calcitonin receptor [4] is 0.031 nM; on Calcitonin receptor [8] it was 0.066 nM.

In the case of `CC(C)C[C@H](NC(=O)[C@H](C)NC(=O)[C@H](C)NC(=O)[C@@H](NC(=O)[C@H](CO)NC(=O)[C@H](CC(C)C)NC(=O)[C@H](CCC(=O)O)NC(=O)[C@H](CO)NC(=O)[C@H](C)NC(=O)CC[C@H](NC(=O)CCCCCCCCCCCCCCCCCCC(=O)O)C(=O)O)[C@@H](C)O)C(=O)NCC(=O)N[C@@H](CCCNC(=N)N)C(=O)N[C@@H](CC(C)C)C(=O)N[C@@H](CO)C(=O)N[C@@H](C)C(=O)N[C@@H](CCC(=O)O)C(=O)N[C@@H](CC(C)C)C(=O)N[C@@H](Cc1cnc[nH]1)C(=O)N[C@@H](CCC(=O)O)C(=O)N[C@@H](CC(C)C)C(=O)N[C@@H](C)C(=O)N[C@H](C(=O)N[C@@H](CC(C)C)C(=O)N1CCC[C@H]1C(=O)N[C@@H](CCCNC(=N)N)C(=O)N[C@H](C(=O)N[C@@H](CCC(=O)O)C(=O)N[C@H](C(=O)NCC(=O)N[C@H](C(=O)NCC(=O)N[C@H](C(=O)N1CCC[C@H]1C(N)=O)[C@@H](C)O)[C@@H](C)O)[C@@H](C)O)[C@@H](C)O)[C@@H](C)O` ({C20 diacid-γGlu}-ASELSTAALGRLSAELHELATLPRTETGTGTP-NH2), the solubility at 18 h in series [1], in [3], in series [5], in series [6], in series [7] and in series [9] was no less than 200 µM throughout. Also, the solubility at 18 h in series [10] and in series [11] was no less than 200 µM in each case. Besides, the IC50 in [2] is 0.606 nM. In addition, the EC50 at Calcitonin receptor [4] was 0.056 nM; at Calcitonin receptor [8], 0.045 nM; in [12], 0.05 nM.

Take `CC(C)C[C@H](NC(=O)[C@H](C)NC(=O)[C@H](C)NC(=O)[C@@H](NC(=O)[C@H](CO)NC(=O)[C@H](CC(C)C)NC(=O)[C@H](CCC(=O)O)NC(=O)[C@H](CO)NC(=O)[C@H](C)NC(=O)CC[C@H](NC(=O)CCCCCCCCCCCCCCCCCCC(=O)O)C(=O)O)[C@@H](C)O)C(=O)NCC(=O)N[C@@H](CCCNC(=N)N)C(=O)N[C@@H](CC(C)C)C(=O)N[C@@H](CO)C(=O)N[C@@H](CCC(=O)O)C(=O)N[C@@H](CCC(=O)O)C(=O)N[C@@H](CC(C)C)C(=O)N[C@@H](Cc1cnc[nH]1)C(=O)N[C@@H](CCC(=O)O)C(=O)N[C@@H](CC(C)C)C(=O)N[C@@H](C)C(=O)N[C@H](C(=O)N[C@@H](CC(C)C)C(=O)N1CCC[C@H]1C(=O)N[C@@H](CCCNC(=N)N)C(=O)N[C@H](C(=O)N[C@@H](CCC(=O)O)C(=O)N[C@H](C(=O)NCC(=O)N[C@@H](CO)C(=O)NCC(=O)N[C@@H](CO)C(=O)N1CCC[C@H]1C(N)=O)[C@@H](C)O)[C@@H](C)O)[C@@H](C)O` ({C20 diacid-γGlu}-ASELSTAALGRLSEELHELATLPRTETGSGSP-NH2): the solubility at 18 h in series [1], in series [3], in series [5], in [6], in [7] and in series [9] was no less than 200 µM throughout. Moreover, the solubility at 18 h in [10] and in series [11] was no less than 200 µM throughout. For the same molecule, the EC50 on Calcitonin receptor [8] is 0.025 nM; in series [13], 0.085 nM; in series [12] it was 0.041 nM.

In the case of `CC(C)C[C@H](NC(=O)[C@H](C)NC(=O)[C@H](C)NC(=O)[C@@H](NC(=O)[C@H](CO)NC(=O)[C@H](CC(C)C)NC(=O)[C@H](CCC(=O)O)NC(=O)[C@H](CO)NC(=O)[C@H](C)NC(=O)CC[C@H](NC(=O)CCCCCCCCCCCCCCCCC(=O)O)C(=O)O)[C@@H](C)O)C(=O)NCC(=O)N[C@@H](CCCNC(=N)N)C(=O)N[C@@H](CC(C)C)C(=O)N[C@@H](CO)C(=O)N[C@@H](C)C(=O)N[C@@H](CCC(=O)O)C(=O)N[C@@H](CC(C)C)C(=O)N[C@@H](Cc1cnc[nH]1)C(=O)N[C@@H](CCC(=O)O)C(=O)N[C@@H](CC(C)C)C(=O)N[C@@H](C)C(=O)N[C@H](C(=O)N[C@@H](CC(C)C)C(=O)N1CCC[C@H]1C(=O)N[C@@H](CCCNC(=N)N)C(=O)N[C@H](C(=O)N[C@@H](CCC(=O)O)C(=O)N[C@H](C(=O)NCC(=O)N[C@@H](CO)C(=O)N1CCC[C@H]1C(=O)N[C@@H](CO)C(=O)N1CCC[C@H]1C(N)=O)[C@@H](C)O)[C@@H](C)O)[C@@H](C)O` ({C18 diacid-γGlu}-ASELSTAALGRLSAELHELATLPRTETGSPSP-NH2), the solubility at 18 h in series [1], in [3], in series [5], in series [6], in series [7] and in [9] was no less than 200 µM throughout. In addition, the solubility at 18 h in series [10] and in series [11] was no less than 200 µM in each case. For the same molecule, the EC50 at Calcitonin receptor [4] was 0.019 nM; on Calcitonin receptor [8], 0.008 nM; in series [13], 0.039 nM; in series [12], 0.013 nM.

Consider `CC(C)C[C@H](NC(=O)[C@H](C)NC(=O)[C@H](C)NC(=O)[C@@H](NC(=O)[C@H](CO)NC(=O)[C@H](CC(C)C)NC(=O)[C@H](CCC(=O)O)NC(=O)[C@H](CO)NC(=O)[C@H](C)NC(=O)[C@H](C)NC(=O)[C@H](CCC(=O)O)NC(=O)CC[C@H](NC(=O)CCCCCCCCCCCCCCCCCCC(=O)O)C(=O)O)[C@@H](C)O)C(=O)NCC(=O)N[C@@H](CCCNC(=N)N)C(=O)N[C@@H](CC(C)C)C(=O)N[C@@H](CO)C(=O)N[C@@H](C)C(=O)N[C@@H](CCC(=O)O)C(=O)N[C@@H](CC(C)C)C(=O)N[C@@H](Cc1cnc[nH]1)C(=O)N[C@@H](CCC(=O)O)C(=O)N[C@@H](CC(C)C)C(=O)N[C@@H](C)C(=O)N[C@H](C(=O)N[C@@H](Cc1ccc(O)cc1)C(=O)N1CCC[C@H]1C(=O)N[C@@H](CCCNC(=N)N)C(=O)N[C@H](C(=O)N[C@@H](CCC(=O)O)C(=O)N[C@H](C(=O)NCC(=O)N[C@@H](CO)C(=O)NCC(=O)N[C@@H](CO)C(=O)N1CCC[C@H]1C(N)=O)[C@@H](C)O)[C@@H](C)O)[C@@H](C)O` ({C20 diacid-γGlu}-EAASELSTAALGRLSAELHELATYPRTETGSGSP-NH2), for which the solubility at 18 h in series [1], in [3], in series [5], in series [6], in series [7] and in series [9] was no less than 200 µM in each case. For the same molecule, the solubility at 18 h in series [10] and in series [11] was no less than 200 µM in each case. Moreover, the IC50 in series [2] was 1.92 nM. Besides, the concentration for a half-maximal effect (EC50) on Calcitonin receptor [4] is 0.113 nM; on Calcitonin receptor [8], 0.015 nM; in [12], 0.017 nM.
